{
  "source": "patent US9346754B2",
  "about": "“Method of treating advanced non-alcoholic steatohepatitis” (priority 2014, dated 2016)",
  "assay_type_in_all_cases": "in vivo, C57BL/6 mice",
  "key": {"[1]": {"tested_on": "STAM Model of Advanced Non-Alcoholic Steatohepatitis", "assay": "Sirius red staining, percentage of fibrosis area in STAM mice", "conditions": "10 mg/kg oral once daily", "method": "For HE staining, sections were cut from paraffin blocks of liver tissue prefixed in Bouin's solution and stained with Lillie-Mayer's Hematoxylin (Muto Pure Chemicals, Japan) and eosin solution (Wako Pure Chemical Industries). NAFLD Activity score (NAS) was calculated according to the criteria of Kleiner (Kleiner D E. et al., Hepatology, 2005; 41:1313). To visualize collagen deposition, Bouin's fixed liver sections were stained using picro-Sirius red solution (Waldeck, Germany). For quantitative analysis of fibrosis area, inflammation area, and semi-quantification of α-SMA, bright field images of Sirius red-stained, F4/80- and α-SMA-immunostained sections were captured around the central vein using a digital camera (DFC280: Leica Microsystems, Germany) at 200-fold magnification, and the positive areas in 5 fields/section were measured using ImageJ software (National Institute of Health, USA). […] P values<0.05 were considered statistically significant. […] Results were expressed as mean±SD."}, "[2]": {"tested_on": "STAM Model of Advanced Non-Alcoholic Steatohepatitis", "assay": "HE staining and NAFLD Activity Score (NAS) in STAM mice", "design": "key to NAS (NAFLD Activity Score): NAS scored per Kleiner criteria (Hepatology 2005)", "method": "STAM™ is a useful model for advanced non-alcoholic steatohepatitis (advanced NASH), symptoms thereof, and related liver disorders, created by the combination of chemical and dietary interventions in C57BL/6 mice. In this example, after inducing NASH, it was allowed to reach an advanced stage, and the mice were treated at 8-12 weeks. […] Vehicle, MN-001, and Telmisartan were administered by oral route in a volume of 10 mL/kg. […] For HE staining, sections were cut from paraffin blocks of liver tissue prefixed in Bouin's solution and stained with Lillie-Mayer's Hematoxylin (Muto Pure Chemicals, Japan) and eosin solution (Wako Pure Chemical Industries). NAFLD Activity score (NAS) was calculated according to the criteria of Kleiner (Kleiner D E. et al., Hepatology, 2005; 41:1313). To visualize collagen deposition, Bouin's fixed liver sections were stained using picro-Sirius red solution (Waldeck, Germany). […] P values<0.05 were considered statistically significant. […] Results were expressed as mean±SD. Ten NASH mice were orally administered vehicle supplemented with MN-001 at a dose of 10 mg/kg once daily from 8 to 12 weeks of age. Ten NASH mice were orally administered vehicle supplemented with MN-001 at a dose of 30 mg/kg once daily from 8 to 12 weeks of age. Ten NASH mice were orally administered vehicle supplemented with MN-001 at a dose of 100 mg/kg once daily from 8 to 12 weeks of age. Ten NASH mice were orally administered pure water supplemented with Telmisartan at a dose of 10 mg/kg once daily from 8 to 12 weeks of age."}, "[3]": {"tested_on": "STAM Model of Advanced Non-Alcoholic Steatohepatitis", "assay": "F4/80 immunostaining, percentage of inflammation area in STAM mice", "method": "(§1) For immunohistochemistry, sections were cut from frozen liver tissues embedded in Tissue-Tek O.C.T. compound and fixed in acetone. Endogenous peroxidase activity was blocked using 0.03% H2O2 for 5 minutes, followed by incubation with Block Ace (Dainippon Sumitomo Pharma, Japan) for 10 minutes. The sections were incubated with a 200-fold dilution of anti-α-SMA (Epitomics, USA) or anti-F4/80 antibody (BMA Biomedicals, Switzerland) 1 hour at room temperature. […] For quantitative analysis of fibrosis area, inflammation area, and semi-quantification of α-SMA, bright field images of Sirius red-stained, F4/80- and α-SMA-immunostained sections were captured around the central vein using a digital camera (DFC280: Leica Microsystems, Germany) at 200-fold magnification, and the positive areas in 5 fields/section were measured using ImageJ software (National Institute of Health, USA). […] P values<0.05 were considered statistically significant. […] Results were expressed as mean±SD."}, "Collagen Type 1 mRNA": {"tested_on": "Collagen Type 1 mRNA", "assay": "Liver gene expression by quantitative RT-PCR: Collagen Type 1", "conditions": "Telmisartan 10 mg/kg oral once daily, 8 to 12 weeks of age", "method": "(§2) Total RNA was extracted from liver samples using RNAiso (Takara Bio, Japan) according to the manufacturer's instructions. One μg of RNA was reverse-transcribed using a reaction mixture containing 4.4 mM MgCl2 (F. Hoffmann-La Roche, Switzerland), 40 U RNase inhibitor (Toyobo, Japan), 0.5 mM dNTP (Promega, USA), 6.28 μM random hexamer (Promega), 5× first strand buffer (Promega), 10 mM dithiothreitol (Invitrogen, USA) and 200 U MMLV-RT (Invitrogen) in a final volume of 20 μL. The reaction was carried out for 1 hour at 37° C., followed by 5 minutes at 99° C. Real-time PCR was performed using real-time PCR DICE and SYBR premix Taq (Takara Bio). To calculate the relative mRNA expression level, the expression of each gene was normalized to that of reference gene 36B4 (gene symbol: Rp1p0). Information of PCR-primer sets are described in Table 1. [table] […] P values<0.05 were considered statistically significant. […] Results were expressed as mean±SD."}, "Five-Lipoxygenase mRNA": {"tested_on": "Five-Lipoxygenase mRNA", "assay": "Liver gene expression by quantitative RT-PCR: Five-Lipoxygenase", "conditions": "10 mg/kg oral once daily, 8 to 12 weeks of age (MN-001-low; Telmisartan)", "method": "as §2"}, "Alpha-SMA mRNA": {"tested_on": "Alpha-SMA mRNA", "assay": "Liver gene expression by quantitative RT-PCR: Alpha-SMA", "conditions": "Telmisartan 10 mg/kg oral once daily, 8 to 12 weeks of age", "method": "as §2"}, "[4]": {"tested_on": "STAM Model of Advanced Non-Alcoholic Steatohepatitis", "assay": "Alpha-SMA immunostaining, α-SMA-positive area in STAM mice", "conditions": "10 mg/kg oral once daily", "method": "as §1"}, "TIMP-1 mRNA": {"tested_on": "TIMP-1 mRNA", "assay": "Liver gene expression by quantitative RT-PCR: TIMP-1", "conditions": "10 mg/kg oral once daily, 8 to 12 weeks of age (MN-001-low; Telmisartan)", "method": "as §2"}, "[5]": {"conditions": "8 to 12 weeks of age (MN-001-low; Telmisartan)"}, "[6]": {"conditions": "mean ± SD, 8 to 12 weeks of age (MN-001-low n=10; Telmisartan n=9)"}, "[7]": {"conditions": "Telmisartan 10 mg/kg oral once daily, 8 to 12 weeks of age"}, "[8]": {"conditions": "mean ± SD, 10 mg/kg oral once daily, 8 to 12 weeks of age (MN-001-low n=10; Telmisartan n=9)"}},
  "note": "“Also recorded” adds a separate entry of the source.",
  "data": [
    {"smiles": "CCCc1nc2c(C)cc(-c3nc4ccccc4n3C)cc2n1Cc1ccc(-c2ccccc2C(=O)O)cc1", "note": "[Telmisartan, reference compound]", "values": [
      {"measurement": "Fibrosis area compared with the Vehicle group", "setting": "[1]; [5]", "value": "significantly decreased"},
      {"measurement": "Sirius red-positive area (fibrosis area)", "setting": "[1]; [6]", "value": "0.49 ± 0.19", "unit": "%"},
      {"measurement": "NAS compared with the Vehicle group", "setting": "[2]; [7]", "value": "significantly decreased"},
      {"measurement": "NAS (NAFLD Activity Score)", "setting": "[2]; [8]", "value": "2.8 ± 0.8"},
      {"measurement": "Number of mice with Steatosis score 0", "setting": "[2]; score 0 = <5%, 10 mg/kg oral once daily, 8 to 12 weeks of age (MN-001-low n=10; Telmisartan n=9)", "value": 2},
      {"measurement": "Number of mice with Lobular inflammation score 0", "setting": "[2]; score 0 = No foci, 10 mg/kg oral once daily, 8 to 12 weeks of age (MN-001-low n=10; Telmisartan n=9)", "value": 2},
      {"measurement": "Number of mice with Steatosis score 1", "setting": "[2]; score 1 = 5-33%, 10 mg/kg oral once daily, 8 to 12 weeks of age (MN-001-low n=10; Telmisartan n=9)", "value": 7},
      {"measurement": "Number of mice with Lobular inflammation score 1", "setting": "[2]; score 1 = <2 foci/200x, 10 mg/kg oral once daily, 8 to 12 weeks of age (MN-001-low n=10; Telmisartan n=9)", "value": 5},
      {"measurement": "Number of mice with Hepatocyte ballooning score 1", "setting": "[2]; score 1 = Few balloon cells, 10 mg/kg oral once daily, 8 to 12 weeks of age (MN-001-low n=10; Telmisartan n=9)", "value": 9},
      {"measurement": "Number of mice with Lobular inflammation score 2", "setting": "[2]; score 2 = 2-4 foci/200x, 10 mg/kg oral once daily, 8 to 12 weeks of age (MN-001-low n=10; Telmisartan n=9)", "value": 2},
      {"measurement": "Inflammation area compared with the Vehicle group", "setting": "[3]; [7]", "value": "significantly decreased; also recorded: tended to decrease"},
      {"measurement": "F4/80-positive area (inflammation area)", "setting": "[3]; [8]", "value": "3.79 ± 1.60", "unit": "%"},
      {"measurement": "Collagen Type 1 mRNA expression levels compared with the Vehicle group", "setting": "Collagen Type 1 mRNA", "value": "significantly down-regulated"},
      {"measurement": "Five-Lipoxygenase mRNA expression levels compared with the Vehicle group", "setting": "Five-Lipoxygenase mRNA", "value": "tended to decrease"},
      {"measurement": "Alpha-SMA mRNA expression levels compared with the Vehicle group", "setting": "Alpha-SMA mRNA", "value": "significantly down-regulated"},
      {"measurement": "α-SMA-positive area compared with the Vehicle group", "setting": "[4]; [5]", "value": "significantly decreased"},
      {"measurement": "Alpha-SMA-positive area", "setting": "[4]; [6]", "value": "0.35 ± 0.14", "unit": "%"},
      {"measurement": "TIMP-1 mRNA expression levels compared with the Vehicle group", "setting": "TIMP-1 mRNA", "value": "significantly down-regulated"}
    ]}
  ]
}
